Test results reported in patent EP0330874A2, “Antibacterial and antitumor agents LL-E33288 epsilon-I and LL-E33288-epsilonBr, with processes and intermediates for producing said agents” (AMERICAN CYANAMID COMPANY, priority 1988, dated 1989).

System: lymphocytic leukemia P388
Assay: Lymphocytic Leukemia P388 Test
Assay type: in vivo, BDFl mice
Conditions: for Median Survival: mice, 30 days observation; for T/C x 100: ratio of survival time treated/control, 125 or over = significant
From the text: Certain in vivo testing systems and protocols have been developed by the National Cancer Institute for testing compounds to determine their suitability as antineoplastic agents. These have been reported in "Cancer Chemotherapy Reports", Part III, Volume 3, No. 2 (1972), Geran, et al. These protocols have established standardized screening tests which are generally followed in the field of testing for antitumor agents. Of these systems, lymphocytic leukemia P388 is particularly significant to the present invention. This neoplasm is utilized for testing as transplantable tumors in mice. Significant antitumor activity shown in this protocol by a percentage increase of mean survival times of the treated(T) animals over the control(C) animals is indicative of similar results in human leukemias and solid tumors.
The animals used were BDFl mice, all of one sex, weighing a minimum of 17 g and all within a 3 g weight range. There were 5 or 6 mice per test group. The tumor transplant was by intraperitoneal injection of 0.5 ml of dilute ascitic fluid containing 10⁶ cells of lymphocytic leukemia P388. The test compounds were administered intraperitoneally at a volume of 0.5 ml in 0.2% Klucel in normal saline on days 1, 5 and 9 (relative to tumor inoculation) at the indicated doses. The mice were weighed and survivors recorded on a regular basis for 30 days. The median survival time and the ratio of survival time for treated(T)/control(C) animals were calculated. The positive control compound for LL-E33288ε-I was 1,4-dihydroxy-5,8-bis[[2-(2-hydroxyethylamino)ethyl]amino]anthraquinone, dihydrochloride (U. S. Patent 4,197,249). The positive control compound for dethiomethylγ₁-I was 1,4-bis[2-(2-hydroxyethylamino)ethylamino]-5,8-dihydroxyanthroquinone dihydrochloride, Lederle Laboratories, Pearl River, New York ("Novantrone"). The controls were given as an intraperitoneal injections in 0.5 ml of 0.2% Klucel on days 1, 5 and 9 at the indicated doses.
If T/C X 100 (%) is 125 or over, the tested compound is considered to have significant anti-tumor activity.

[1] = Dose 0.4 mg/kg intraperitoneally on days 1, 5 and 9
[2] = Dose 0.8 mg/kg intraperitoneally on days 1, 5 and 9
[3] = Dose 1.6 mg/kg intraperitoneally on days 1, 5 and 9

Cl.Cl.O=C1c2c(O)ccc(O)c2C(=O)c2c(NCCNCCO)ccc(NCCNCCO)c21 [Positive Control, 1,4-dihydroxy-5,8-bis[[2-(2-hydroxyethylamino)ethyl]amino]anthraquinone, dihydrochloride]
Median Survival [1]: 21.5 days
T/C x 100 [1]: 215%
Median Survival [2]: >30 days
T/C x 100 [2]: >300%
Median Survival [3]: 27 days
T/C x 100 [3]: 270%
